Where no end group is shown, it is not given here.
Test system: E. coli (CCUG 29300)
Experiment: Endotoxin binding of AMP functionalised crosslinked hydrogel particle dispersion, chromogenic LAL endotoxin assay
Type: cell-based
Details: E. coli 10^6 CFU/ml, 37° C., 1 hour, 3 hours and 24 hours, FIG. 2 and 3

RRPRPRPRPWWWW-NH2 [RRP9W4N, PRELP derived amphiphilic antimicrobial peptide, free in PBS solution]
endotoxin neutralisation: neutralised endotoxins in all measured durations of incubation

From US20260242413A1, “ENDOTOXIN NE[…]” (AMFERIA AB, priority 2023, published 2026)
